For one data set, the target named is T1, RAR β (Homo sapiens, UniProt P10826).
T1 sequence (P10826 1-455): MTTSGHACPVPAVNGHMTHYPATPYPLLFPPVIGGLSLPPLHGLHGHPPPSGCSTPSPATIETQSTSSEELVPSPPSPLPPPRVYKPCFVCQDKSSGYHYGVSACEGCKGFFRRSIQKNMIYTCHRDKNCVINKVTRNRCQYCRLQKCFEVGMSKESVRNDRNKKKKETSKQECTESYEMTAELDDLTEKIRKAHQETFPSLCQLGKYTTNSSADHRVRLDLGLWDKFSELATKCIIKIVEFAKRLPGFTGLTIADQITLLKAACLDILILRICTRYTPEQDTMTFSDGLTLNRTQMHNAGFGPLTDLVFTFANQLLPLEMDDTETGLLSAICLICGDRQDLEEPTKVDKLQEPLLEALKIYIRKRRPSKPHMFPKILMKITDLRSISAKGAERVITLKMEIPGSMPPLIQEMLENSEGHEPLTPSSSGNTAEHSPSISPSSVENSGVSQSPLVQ
Kind of data set: Ligand binding assay, retinoic acid receptor β. The conditions noted are these: second value of α/β/γ cell. The text has this:
(§1) The retinoic acid receptor agonist selectivity of a compound of the invention may be determined by using ligand binding assays known to the skilled artisan (Apfel et al., Proc. Natl. Acad. Sci., 1992, 89, 7129; Teng et al., J. Med. Chem., 1997, 40, 2445; Bryce et al., U.S. Pat. No. 5,807,900 which are herein incorporated by reference). Treatment with RAR agonists, particularly RAR γ agonists may promote repair of alveolar matrix and septation, which are in important in treating emphysema. It should be noted that RAR agonists that are not γ selective may be effective in treating emphysema
(§2) The retinoic acid receptor agonist selectivity of a compound of the invention may be determined by using ligand binding assays known to the skilled artisan (Apfel et al., Proc. Natl. Acad. Sci., 1992, 89, 7129; Teng et al., J. Med. Chem., 1997, 40, 2445; Bryce et al., U.S. Pat. No. 5,807,900 which are herein incorporated by reference). Treatment with RAR agonists, particularly RAR γ agonists may promote repair of alveolar matrix and septation, which are in important in treating emphysema It should be noted that RAR agonists that are not γ selective may be effective in treating emphysema.

Another data set deals with T2, RAR α (Homo sapiens, UniProt P10276).
T2 sequence (P10276 1-462): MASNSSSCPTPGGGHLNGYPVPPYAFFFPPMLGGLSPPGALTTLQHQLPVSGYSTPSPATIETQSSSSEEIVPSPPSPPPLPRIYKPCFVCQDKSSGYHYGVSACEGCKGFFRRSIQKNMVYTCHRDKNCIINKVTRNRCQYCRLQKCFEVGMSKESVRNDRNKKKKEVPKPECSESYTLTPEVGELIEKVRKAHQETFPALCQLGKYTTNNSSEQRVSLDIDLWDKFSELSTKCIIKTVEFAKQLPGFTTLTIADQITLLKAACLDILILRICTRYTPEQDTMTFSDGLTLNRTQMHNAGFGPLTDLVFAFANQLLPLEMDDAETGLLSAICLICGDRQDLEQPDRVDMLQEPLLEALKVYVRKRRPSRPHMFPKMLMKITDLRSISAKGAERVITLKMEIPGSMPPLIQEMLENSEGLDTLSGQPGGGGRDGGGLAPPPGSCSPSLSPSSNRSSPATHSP
The data set can be described thus: Ligand binding assay, retinoic acid receptor α. The conditions noted are these: first value of α/β/γ cell.
Description: as §1, §2

A further data set concerns the target T3, RAR γ (Homo sapiens, UniProt P13631).
T3 sequence (P13631 1-454): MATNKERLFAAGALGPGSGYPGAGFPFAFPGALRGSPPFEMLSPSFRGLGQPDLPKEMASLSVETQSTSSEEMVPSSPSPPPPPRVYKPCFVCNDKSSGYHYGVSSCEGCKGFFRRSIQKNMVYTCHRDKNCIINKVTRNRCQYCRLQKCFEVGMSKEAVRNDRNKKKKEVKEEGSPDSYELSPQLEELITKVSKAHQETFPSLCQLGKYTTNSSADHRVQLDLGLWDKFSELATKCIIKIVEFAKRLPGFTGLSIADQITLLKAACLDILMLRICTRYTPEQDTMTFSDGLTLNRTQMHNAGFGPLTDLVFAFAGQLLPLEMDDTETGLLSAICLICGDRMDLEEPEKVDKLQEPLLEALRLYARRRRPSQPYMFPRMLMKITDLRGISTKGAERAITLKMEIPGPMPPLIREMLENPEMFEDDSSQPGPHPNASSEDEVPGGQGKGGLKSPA
Kind of data set: Ligand binding assay, retinoic acid receptor γ. As to conditions: third value of α/β/γ cell.
Description: as §1, §2

The test system of data set [1] is rat model of elastase-induced emphysema. Kind of data set: Alveolar repair in rat model of elastase-induced emphysema. Format: in vivo, male Sprague Dawley rats. As to conditions: once per day starting 21 days post elastase injury, relative to elastase+vehicle group. The text has this: Compounds of the invention may be evaluated for their effects on alveolar repair in the rat model of elastase-induced emphysema (Massaro et al., Nature, 1997, Vol. 3, No. 6: 675; Massaro et al., U.S. Pat. No. 5,998,486). Preferably, animals are divided into treatment groups of approximately eight. Lung inflammation and alveolar damage may be induced in male Sprague Dawley rats by a single instillation of about 2 U/gram body mass of pancreatic elastase (porcine derived, Calbiochem).
Animals may be treated with a compound of the invention formulated Miglyol at convenient oral dosage ranges (preferably, between about 10.0 mg/kg and 0.0001 mg/kg) and will be dosed orally once per day starting 21 days post injury. Control groups are challenged with elastase and 21 days later are treated with vehicle (Miglyol) for 14 days. Animals were sacrificed 24 hours after the last dose by exsanguination under deep anesthesia. Blood was collected at time of exsanguination for analysis.
The lungs are inflated with 10% neutral buffered formalin by intratracheal instillation at a constant rate (1 ml/gram body mass/min). The lung is excised and immersed in fixative for 24 hours prior to processing. Standard methods were used to prepare 5 μm paraffin sections. Sections were stained with Hematoxylin and Eosin. Alveolar measurements were made in four regions of the lung/rat by Computerized Morphometric analysis. The mean value/treatment group may be determined by summing the average area/rat for all eight rats/treatment groups and repair of elastase damage expressed as percentage of repair relative to the elastase+vehicle treated group from the following calculation: […]

By IC50 is commonly meant the concentration that gives 50% inhibition. A lower IC50 goes with greater potency. As usually defined, the melting point is the temperature, or range, at which the solid turns liquid. As to `CCCCCC(COc1ccc(C(=O)O)cc1)c1ccc2c(c1)OCCC2(C)C` (racemic) [Example 5.1, 4-[2-(4,4-dimethyl-chroman-7-yl)-heptyloxy]-benzoic acid], the melting point is 91.5 to 93.3 °C. This compound showed an IC50 on RAR β of 3160 nM. This compound also displayed an IC50 at RAR α of 3920 nM. Also, at RAR γ, the IC50 is 3770 nM.
On to `CCCCCC(/C=C/c1ccc(C(=O)O)cc1)c1ccc2c(c1)N(C)CCC2(C)C` (racemic) [Example 5.5, 4-[3-(1,4,4-trimethyl-1,2,3,4-tetrahydro-quinolin-7-yl)-oct-1-enyl]-benzoic acid], for which the IC50 at RAR β was found to be 1940 nM; at RAR α, 1460 nM; at RAR γ, 1420 nM. The “% Alveolar repair” value in data set [1] (dose 1 μg/kg p.o.) is 65%; in data set [1] (dose 10 μg/kg p.o.) it was 54%; in data set [1] (dose 100 μg/kg p.o.), 60.9%.
For `CCCCCC(COc1ccc(C(=O)O)cc1)c1ccc2c(c1)N(C)CCC2(C)C` (racemic) [Example 5.12, 4-[2-(1,4,4-trimethyl-1,2,3,4-tetrahydro-quinolin-7-yl)-heptyloxy]-benzoic acid], the IC50 on RAR β was 4150 nM; at RAR α, 3170 nM; on RAR γ, 5440 nM.
Regarding `CCCCCC(/C=C/c1ccc(C(=O)O)cc1)c1ccc2c(c1)OCCC2(C)C` (racemic) [Example 5.3, 4-[3-(4,4-dimethyl-chroman-7-yl)-oct-1-enyl]-benzoic acid], the IC50 on RAR β turned out to be 2920 nM; on RAR α, 6920 nM; on RAR γ, 3870 nM.
The compound `CCCCCC(COc1ccc(C(=O)O)cc1)c1ccc2c(c1)SCCC2(C)C` (racemic) [Example 5.2, 4-[2-(4,4-dimethyl-thiochroman-7-yl)-heptyloxy]-benzoic acid] returned a melting point of 123 to 123.5 °C. This compound returned an IC50 on RAR β of 3010 nM. Also, the IC50 at RAR α is 2070 nM. The same compound showed an IC50 on RAR γ of 3230 nM.
Consider `CCCCCC(/C=C/c1ccc(C(=O)O)cc1F)c1ccc2c(c1)N(C)CCC2(C)C` (racemic) [Example 5.11, 3-fluoro-4-[3-(1,4,4-trimethyl-1,2,3,4-tetrahydro-quinolin-7-yl)-oct-1-enyl]-benzoic acid], for which the IC50 on RAR β amounted to 3260 nM; at RAR α, 6290 nM; at RAR γ, 4060 nM.
For `CCCCCC(/C=C/c1ccc(C(=O)O)cc1)c1ccc2c(c1)NCCC2(C)C` (racemic) [Example 5.10, 4-[3-(4,4-dimethyl-1,2,3,4-tetrahydro-quinolin-7-yl)-oct-1-enyl]-benzoic acid], in that order: 8270 nM, 5140 nM and 6390 nM.
For `CCCCCC(/C=C/c1ccc(C(=O)O)cc1)c1ccc2c(c1)N(CC)CCC2(C)C` (racemic) [Example 5.6, 4-[3-(1-ethyl4,4-dimethyl-1,2,3,4-tetrahydro-quinolin-7-yl)-oct-1-enyl]-benzoic acid], in that order: 1470 nM, 1280 nM and 1000 nM.
For the compound `CCCCCC(COc1ccc(C(=O)O)cc1)c1ccc2c(c1)N(CC)CCC2(C)C` (racemic) [Example 5.13, 4-[2-(1-ethyl4,4-dimethyl-1,2,3,4-tetrahydro-quinolin-7-yl)-heptyloxy]-benzoic acid], the IC50 is 3130 nM on RAR β, 2520 nM at RAR α and 3600 nM on RAR γ.
For `CCC(/C=C/c1ccc(C(=O)O)cc1)c1ccc2c(c1)N(C)CCC2(C)C` (racemic) [Example 5.7, 4-[3-(1,4,4-trimethyl-1,2,3,4-tetrahydro-quinolin-7-yl)-pent-1-enyl]-benzoic acid], in that order: 1050 nM, 3390 nM and more than 10000 nM.
For `CCCCCC(/C=C/c1ccc(C(=O)O)cc1)c1ccc2c(c1)SCCC2(C)C` (racemic) [Example 5.4, 4-[3-(4,4-dimethyl-thiochroman-7-yl)-oct-1-enyl]-benzoic acid], in that order: 1490 nM, 1580 nM and 2330 nM.

For the origin of these results see patent publication US7354931B2, “Heterocyclic retinoid compounds” (Roche Palo Alto LLC, priority 2001, dated 2008).
